Reference: ChEMBL document CHEMBL5042488, “Synthesis, biological, and structural explorations of a series of μ-opioid receptor (MOR) agonists with high G protein signaling bias” (Eur J Med Chem, 2022)
pEC50, pIC50, pKi: −log10 of the molar value. Activity calls are given as the source filed them.

How the values were obtained:
[1] = Plasma protein binding in human plasma assessed as unbound fraction; format: ADME, cell-free
[2] = Cmax in Sprague-Dawley rat at 2 mg/kg, iv by LC-MS/MS analysis; format: ADME, organism-based; set-up: route intravenous, dose 2 mg/kg; details: in vivo
Mu-type opioid receptor [3] = target: T1, Mu-type opioid receptor (Homo sapiens, UniProt P35372); experiment: Agonist activity at human mu opioid receptor expressed in HEK293 assessed as increase in calcium mobilization incubated for 60 mins by FLIPR assay; format: functional, cell-based
T1 sequence (P35372 whole entry): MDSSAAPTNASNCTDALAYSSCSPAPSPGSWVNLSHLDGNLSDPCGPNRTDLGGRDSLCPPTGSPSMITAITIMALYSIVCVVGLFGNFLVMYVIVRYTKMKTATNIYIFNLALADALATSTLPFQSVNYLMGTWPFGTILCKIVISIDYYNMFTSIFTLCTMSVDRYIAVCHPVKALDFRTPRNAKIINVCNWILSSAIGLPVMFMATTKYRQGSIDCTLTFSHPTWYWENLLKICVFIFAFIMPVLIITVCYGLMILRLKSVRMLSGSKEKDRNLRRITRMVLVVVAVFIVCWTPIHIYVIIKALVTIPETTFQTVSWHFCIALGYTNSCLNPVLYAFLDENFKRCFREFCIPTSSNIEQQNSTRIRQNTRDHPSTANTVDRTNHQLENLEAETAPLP

[4] = Plasma protein binding in rat plasma assessed as unbound fraction; format: ADME, cell-free
Rattus norvegicus [5] = experiment: Antinociceptive activity in Sprague-Dawley rat assessed as increase in paw withdrawal latency at 0.3 mg/kg, sc measured after 30 mins by Hot-plate test; format: functional, organism-based
Cytochrome P450 2C19 = Cytochrome P450 2C19 (Homo sapiens, UniProt P33261); experiment: Inhibition of CYP2C19 (unknown origin); format: ADME
Cytochrome P450 2C19, sequence (P33261 whole entry): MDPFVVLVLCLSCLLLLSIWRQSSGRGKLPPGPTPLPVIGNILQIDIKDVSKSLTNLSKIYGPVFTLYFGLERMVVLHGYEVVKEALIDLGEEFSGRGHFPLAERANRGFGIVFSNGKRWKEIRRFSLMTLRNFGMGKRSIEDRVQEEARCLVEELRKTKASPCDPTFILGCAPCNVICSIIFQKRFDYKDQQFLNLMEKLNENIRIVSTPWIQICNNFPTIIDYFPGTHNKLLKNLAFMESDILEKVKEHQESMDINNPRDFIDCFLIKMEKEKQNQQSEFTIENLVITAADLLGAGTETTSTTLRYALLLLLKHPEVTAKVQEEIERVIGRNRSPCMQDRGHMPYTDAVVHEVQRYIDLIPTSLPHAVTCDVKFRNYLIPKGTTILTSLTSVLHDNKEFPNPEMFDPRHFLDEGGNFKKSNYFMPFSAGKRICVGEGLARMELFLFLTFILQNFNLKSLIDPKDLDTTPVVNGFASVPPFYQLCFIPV

[6] = target: Kappa-type opioid receptor (Homo sapiens, UniProt P41145); experiment: Agonist activity at human kappa opioid receptor expressed in HEK293 assessed as increase in calcium mobilization incubated for 60 mins by FLIPR assay; format: functional, cell-based
Kappa-type opioid receptor, sequence (P41145 whole entry): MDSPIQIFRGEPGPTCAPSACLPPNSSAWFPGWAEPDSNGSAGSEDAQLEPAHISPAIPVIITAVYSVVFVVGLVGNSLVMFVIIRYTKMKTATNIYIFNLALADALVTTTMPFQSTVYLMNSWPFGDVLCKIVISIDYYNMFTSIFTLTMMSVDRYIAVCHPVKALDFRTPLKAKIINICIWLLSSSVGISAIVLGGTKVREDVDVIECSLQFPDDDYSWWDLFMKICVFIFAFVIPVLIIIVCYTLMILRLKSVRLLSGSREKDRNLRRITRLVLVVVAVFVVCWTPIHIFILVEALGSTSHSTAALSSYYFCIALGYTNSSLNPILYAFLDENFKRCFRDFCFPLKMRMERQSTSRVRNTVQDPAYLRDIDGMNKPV

Rattus norvegicus [7] = experiment: Antinociceptive activity in Sprague-Dawley rat incision pain model assessed as increase in paw withdrawal latency at 0.125 to 0.5 mg/kg, sc measured after 30 mins by Von Frey filament assay; format: functional; details: dose 0.125-0.5 mg/kg
[8] = AUClast in Sprague-Dawley rat at 2 mg/kg, iv by LC-MS/MS analysis; format: ADME, organism-based; set-up: time 0 - last, route intravenous, dose 2 mg/kg; details: in vivo
[9] = Drug concentration in Sprague-Dawley rat brain at […], iv measured after 5 mins by LC-MS/MS analysis; format: ADME, organism-based; details: dose 0.25 mg/kg, read-out: Drug uptake
[10] = Half life of compound; format: physicochemical
Mu-type opioid receptor [11] = target: T1, Mu-type opioid receptor; experiment: Agonist activity at mu opioid receptor (unknown origin) assessed as maximal beta arrestin-2 recruitment incubated for 3 days by PathHunter assay relative to DAMGO; format: functional; details: time 3.0 day
[12] = Toxicity in Sprague-Dawley rat assessed as effect on respiration at 0.3 mg/kg, sc; format: organism-based; details: in vivo
[13] = Apparent volume of distribution in Sprague-Dawley rat at 2 mg/kg, iv by LC-MS/MS analysis; format: ADME, organism-based; details: in vivo, read-out: Vz
Mu-type opioid receptor [14] = target: T1, Mu-type opioid receptor; experiment: Displacement of [3H]-Diprenorphine from human mu opiod receptor expressed in CHO cells incubated for 1 hr by competition binding assay; format: cell-based
[15] = Half life in Sprague-Dawley rat at 2 mg/kg, iv by LC-MS/MS analysis; format: ADME, organism-based; details: in vivo
[16] = Metabolic stability in dog liver microsomes assessed as intrinsic clearance preincubated for 10 mins followed by NADPH addition and measured after 60 mins by LC-MS/MS analysis; format: ADME, Canis lupus familiaris, Microsome; details: time 70 min, read-out: CLH
Mu-type opioid receptor [17] = target: T1, Mu-type opioid receptor; experiment: Agonist activity at mu opioid receptor (unknown origin) assessed as maximal cAMP level incubated for 40 mins by spectrophotometry relative to DAMGO; format: functional; details: filed as agonist
Mu-type opioid receptor [18] = target: T1, Mu-type opioid receptor; experiment: Agonist activity at mu opioid receptor (unknown origin) assessed as increase in cAMP level incubated for 40 mins by spectrophotometry; format: functional
[19] = Toxicity in Sprague-Dawley rat model assessed as effect on blood oxygen levels at […], sc measured after 30 mins by blood gas analyzer; format: organism-based; details: in vivo, 0.5 h, dose 0.32 mg/kg
[20] = Apparent permeability across apical to basal membrane in human Caco-2 cells; format: ADME, cell-based
[21] = Ratio of drug concentration in brain to plasma of Sprague-Dawley rat at 2 mg/kg, iv measured at […] by LC-MS/MS analysis; format: ADME, organism-based; details: time 0.25 hrs
Rattus norvegicus [22] = experiment: Antinociceptive activity in sc dosed Sprague-Dawley rat assessed as increase in thermal pain threshold measured after 30 mins by Hot-plate test; format: functional; details: 0.5 h
[23] = Plasma protein binding in dog plasma assessed as unbound fraction; format: ADME, cell-free, Canis lupus familiaris
[24] = Metabolic stability in rat liver microsomes assessed as intrinsic clearance preincubated for 10 mins followed by NADPH addition and measured after 60 mins by LC-MS/MS analysis; format: ADME, Microsome; details: time 70 min, read-out: CLH
[25] = MRT in Sprague-Dawley rat at 2 mg/kg, iv by LC-MS/MS analysis; format: ADME, organism-based; details: in vivo
[26] = AUC(0 to infinity) in Sprague-Dawley rat at 2 mg/kg, iv by LC-MS/MS analysis; format: ADME, organism-based; set-up: route intravenous, time infinity, dose 2 mg/kg; details: in vivo
[27] = target: Delta-type opioid receptor (Homo sapiens, UniProt P41143); experiment: Agonist activity at human delta opioid receptor expressed in HEK293 assessed as increase in calcium mobilization incubated for 60 mins by FLIPR assay; format: functional, cell-based
Delta-type opioid receptor, sequence (P41143 whole entry): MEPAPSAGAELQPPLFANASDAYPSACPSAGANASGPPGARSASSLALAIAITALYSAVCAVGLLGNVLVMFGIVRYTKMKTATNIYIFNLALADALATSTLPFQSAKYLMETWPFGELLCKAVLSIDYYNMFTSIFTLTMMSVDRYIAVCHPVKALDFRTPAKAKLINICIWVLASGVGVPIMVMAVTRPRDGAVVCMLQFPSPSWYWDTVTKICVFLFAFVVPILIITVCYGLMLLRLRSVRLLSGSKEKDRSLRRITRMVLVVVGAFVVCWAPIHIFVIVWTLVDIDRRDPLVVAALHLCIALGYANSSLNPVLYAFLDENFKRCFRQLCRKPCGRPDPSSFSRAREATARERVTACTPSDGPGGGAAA

[28] = Drug concentration in Sprague-Dawley rat liver at […],iv measured after 30 mins by LC-MS/MS analysis; format: ADME, organism-based; details: in vivo, 0.5 h, dose 0.25 mg/kg
[29] = Metabolic stability in human liver microsomes assessed as intrinsic clearance preincubated for 10 mins followed by NADPH addition and measured after 60 mins by LC-MS/MS analysis; format: ADME, Microsome; details: time 70 min, read-out: CLH
Mu-type opioid receptor [30] = target: T1, Mu-type opioid receptor; experiment: Agonist activity at mu opioid receptor (unknown origin) assessed as beta arrestin-2 recruitment incubated for 3 days by PathHunter assay; format: functional

Fc1ccc([C@]2(CCNCc3cccc(Cl)c3)CCO[C@]3(CCOC3)C2)nc1
fraction unbound [1]: 0.34
Cmax [2]: 0.252 µg/mL
pEC50 (Mu-type opioid receptor [3]): 8.29
fraction unbound [4]: 0.33
Activity (Rattus norvegicus [5]): Active
pIC50 (Cytochrome P450 2C19): < 4.48
pEC50 [6]: < 5.00
Activity (Rattus norvegicus [7]): 50%
AUC(0-t) [8]: 0.132 µg·h/mL
concentration at 5 min [9]: 172 ng/g
half-life [10]: 7.16 min
Emax (Mu-type opioid receptor [11]): 1.6%
Activity [12]: Non-Toxic
Vd [13]: 10.8 L/kg
pKi (Mu-type opioid receptor [14]): 9.29
half-life [15]: 119 min
CLint scaled [16]: 9.12 L/h/kg
Emax (Mu-type opioid receptor [17]): 91.4%
pEC50 (Mu-type opioid receptor [18]): 9.46
Activity [19]: 92.17%
Papp A→B [20]: 52 nm/s
Kp at […] [21]: 4.61
ED50 (Rattus norvegicus [22]): 0.23 mg/kg
fraction unbound [23]: 0.17
CLint scaled [24]: 10.6 L/h/kg
MRT [25]: 48.6 min
AUC [26]: 0.13401 µg·h/mL
pEC50 [27]: < 5.00
Drug uptake [28]: 58.6%

FC1(F)CCc2csc(CNCC[C@@]3(c4ccccn4)CCOC4(CCCC4)C3)c2C1
CLint scaled [29]: 96.5 L/h/kg
Emax (Mu-type opioid receptor [11]; filed as agonist): 54.3%
Emax (Mu-type opioid receptor [17]): 92.5%
pEC50 (Mu-type opioid receptor [30]): 7.96
pEC50 (Mu-type opioid receptor [18]): 8.74

C[C@@H](Cc1ccsc1)NC(=O)NC[C@H](Cc1ccc(O)cc1)N(C)C
CLint scaled [29]: < 0.516 L/h/kg
Emax (Mu-type opioid receptor [11]): 5%
Emax (Mu-type opioid receptor [17]): 89.2%

Fc1ccc([C@]2(CCNCc3scc4c3CCC4)CCOC3(CCOCC3)C2)nc1
Emax (Mu-type opioid receptor [11]; filed as agonist): 125%
Emax (Mu-type opioid receptor [17]): 125%
pEC50 (Mu-type opioid receptor [30]): 6.14
pEC50 (Mu-type opioid receptor [18]): 6.75

Cc1ccsc1CNCC[C@@]1(c2ccc(F)cc2)CCOC2(CCOC2)C1 (some centres not stated)
Emax (Mu-type opioid receptor [11]): 2.9%
Emax (Mu-type opioid receptor [17]): 61.2%
pEC50 (Mu-type opioid receptor [30]): < 4.52
pEC50 (Mu-type opioid receptor [18]): 8.39

COc1ccsc1CNCC[C@@]1(c2ccccn2)CCO[C@@]2(CCOC2)C1
Emax (Mu-type opioid receptor [17]): 66.3%
pEC50 (Mu-type opioid receptor [30]): < 4.52

C[C@@H](NC(=O)[C@@H](N)Cc1ccc(O)cc1)C(=O)NCC(=O)N(C)[C@@H](Cc1ccccc1)C(=O)NCCO [DAMGO]
half-life [10]: 5.95 min

Cc1cccc(CNCC[C@@]2(c3ccccn3)CCOC3(CCOC3)C2)c1 (some centres not stated)
CLint scaled [29]: 0.528 L/h/kg
Emax (Mu-type opioid receptor [17]): 88.9%
pEC50 (Mu-type opioid receptor [30]): < 4.52
pEC50 (Mu-type opioid receptor [18]): 8.21

FC1(F)Cc2csc(CNCC[C@@]3(c4ccccn4)CCOC4(CCCC4)C3)c2C1
Emax (Mu-type opioid receptor [11]): 9.8%
Emax (Mu-type opioid receptor [17]): 96.9%
pEC50 (Mu-type opioid receptor [30]): 8.00
pEC50 (Mu-type opioid receptor [18]): 10.00

c1ccc([C@]2(CCNCc3ccc4ccccc4c3)CCOC3(CCOC3)C2)nc1 (some centres not stated)
Emax (Mu-type opioid receptor [11]): 1.1%
Emax (Mu-type opioid receptor [17]): 124%
pEC50 (Mu-type opioid receptor [30]): < 4.52
pEC50 (Mu-type opioid receptor [18]): 6.76

COc1ccsc1CNCC[C@@]1(c2ccccn2)CCO[C@]2(CCOC2)C1
CLint scaled [29]: 0.558 L/h/kg
Emax (Mu-type opioid receptor [11]): 1.2%
Emax (Mu-type opioid receptor [17]): 63.7%
pEC50 (Mu-type opioid receptor [30]): < 4.52
pEC50 (Mu-type opioid receptor [18]): 7.70

FC1(F)CCc2c(csc2CNCC[C@@]2(c3ccccn3)CCOC3(CCOC3)C2)C1 (some centres not stated)
Emax (Mu-type opioid receptor [11]; filed as agonist): 43.1%
Emax (Mu-type opioid receptor [17]): 101%
pEC50 (Mu-type opioid receptor [30]): 7.16
pEC50 (Mu-type opioid receptor [18]): 9.30

Fc1ccc([C@]2(CCNCc3scc4c3COC4)CCOC3(CCOC3)C2)cc1 (some centres not stated)
CLint scaled [29]: 11.5 L/h/kg
pEC50 (Mu-type opioid receptor [30]): < 4.52
pEC50 (Mu-type opioid receptor [18]): 8.17
